Data set [1] deals with N-methyl-D-aspartate receptors (NMDARs). The following applies: read-out: model-predicted IC50; [Ca2+] = 2.5 mM, Vm = −70 mV.
From the text: To obtain the voltage-dependence of NMDAR block by TCAs, the concentration-ihibition curves were generated at three membrane holding potentials Vm = −100, −70, and −30 mV. The obtained values were fitted with the modified by incorporating the dependence of NMDAR inhibition on [Ca^2+] ([Stepanenko et al., 2019]) Woodhull equation: IC50(Vm[Ca^2+])=IC50(0 mV)·exp(VmzδF/RT)·exp(-[Ca^2+]/X) (6) where IC50 (0 mV) and δ were set as free parameters. IC50 (0 mV) is the value of IC50 at Vm = 0 mV, δ is the fraction of the membrane voltage field exerting force on TCA at its binding site. z = 1 is a molecule electric charge for both DES and CLO. For Faraday constant, gas constant, and room temperature of 28°C, the RT/F ≈ 26 mV. RT/(zδF) is equal to Vm, producing an e-fold change of IC50, and X is equal to [Ca^2+], producing an e-fold change of IC50.
The model is described by Eq. 6 IC50 (Vm, [Ca^2+]) = IC50 (0 mV) • exp (Vm/(e-fold change Vm)) • exp (- [Ca^2+]/(e-fold change [Ca^2+])). The dependences of TCA IC50s on [Ca^2+] […]
FIGURE 7 Predicted IC50 values for NMDAR inhibition by tricyclic antidepressants as a function of membrane voltage (Vm) and external [Ca^2+]. […] The IC50s were calculated as IC50(Vm, [Ca^2+]) = IC50(0 mV) · exp (Vm/Y) ·exp(-[Ca^2+]/X), where X is equal to the [Ca^2+] value required for an e-fold change of IC50, and Y is equal to the Vm value required for an e-fold change of IC50.
The test system of data set [2] is NMDARs. The following applies: cited from earlier work.
Data set [3] relates to N-methyl-D-aspartate receptors (NMDARs). The conditions noted are these: for δ, fraction of the membrane electric field to the binding site: Woodhull model, from the outside.
Method: All procedures on animals were performed in accordance with the guide of the Federation for Laboratory Animal Science Associations (FELASA) and were approved by the Animal Care and Use Committees of Sechenov Institute. Briefly, 17 days pregnant Wistar rats (supplied by the Sechenov Institute Animal Facility) were sacrificed by 1 min CO2 inhalation in a plastic box connected to a CO2 tank. Fetuses were removed, and then primary cultures of rat cortical neurons were prepared using conventional procedures as described earlier ([Antonov and Johnson 1996]; [Mironova et al., 2007]). Neurons were grown in Neurobasal culture medium supplemented with B-27 (Gibco-Invitrogen, United Kingdom) on 7 mm glass coverslips coated with poly-D-lysine and were used for experiments after 10–14 days in culture ([Mironova et al., 2007]; [Han and Stevens 2009]).
Whole-cell currents were recorded from cultured rat cortical neurons using a MultiClamp 700B patch-clamp amplifier. Recordings were low-pass filtered at 400 Hz and digitized at the acquisition rate of 20,000 samples per second by Digidata 1440A controlled by pClamp v10.6 software (Molecular Devices). Solution exchange was performed by means of a fast solution application system as described earlier ([Sibarov et al., 2015]). Unless otherwise specified, the external bathing solution contained (in mM): 144 NaCl; 2.8 KCl; 1.0 CaCl2; 10 HEPES, at pH 7.2–7.4, osmolarity 310 mOsm. The intrapipette solution contained (in mM): 120 CsF, 10 CsCl, 10 EGTA, and 10 HEPES, osmolarity 300 mOsm, with pH adjusted to 7.4 with CsOH. Patch pipettes of 4–6 MΩ were pulled from Sutter BF150-89-10 borosilicate capillaries. Experiments were performed at 22–25°C. Under control conditions, neurons were voltage clamped at −70 mV. Data are reported without corrections for liquid junction potential, which was measured as −11 mV. To activate NMDARs, 100 µM NMDA was always co-applied with 10 µM glycine as co-agonist. Some experiments were performed on neurons loaded with BAPTA. To load BAPTA, cortical neuron cultures were incubated in a bathing solution containing 5 µM BAPTA-AM for 1 h.
To determine the blocking potency of TCAs, NMDA elicited currents were measured in the absence and presence of different TCA concentrations ([B]). Amplitudes of currents measured in the presence of blocker (Ib) were normalized to maximal current response in control (Ic). The IC50 is the concentration of TCA that cause 50% of the maximal inhibition of currents, and the Hill coefficient (h) were estimated by fitting concentration-inhibition curves with the Hill equation: Ib/Ιc=1/(1+[Β]^h/ΙC50h) (1)
To obtain the voltage-dependence of NMDAR block by TCAs, the concentration-ihibition curves were generated at three membrane holding potentials Vm = −100, −70, and −30 mV. The obtained values were fitted with the modified by incorporating the dependence of NMDAR inhibition on [Ca^2+] ([Stepanenko et al., 2019]) Woodhull equation: IC50(Vm[Ca^2+])=IC50(0 mV)·exp(VmzδF/RT)·exp(-[Ca^2+]/X) (6) where IC50 (0 mV) and δ were set as free parameters. […] For Faraday constant, gas constant, and room temperature of 28°C, the RT/F ≈ 26 mV. RT/(zδF) is equal to Vm, producing an e-fold change of IC50, and X is equal to [Ca^2+], producing an e-fold change of IC50.
On the set-up of data set [4]: method as in Stern et al., 1980; McTavish and Benfield 1990. The following applies: ref Stern et al., 1980; McTavish and Benfield 1990; cited from earlier work.
Data set [5] concerns N-methyl-D-aspartate receptors (NMDARs). Description: Kinetics of NMDAR open-channel block and trapping block (block/unblock relaxations, AP5 washout protocol). It counts as cell-based, rat. The method, then: Experiments were performed at 22–25°C.
NMDAR current relaxations during block or unblock by TCA were fit with the single exponential equation: I =(Imax-Imin)·exp (-t/τ)+Imin (2) where Imax and Imin are maximal and minimal amplitudes of currents during relaxations and τ represents the time constant of the exponential component during block onset (τon) or offset (unblock, τoff). From these measurements, the rate constants of block (k^+) and unblock (k^−) was estimated. k^+ was obtained from τon measured at 20 and 90 μM DES (C1 and C2 respectively) using the equation: k^+=(1 /τonC2-1/τonC1)/(C2 - C1) (3)
The k^− was the reciprocal to measured τoff: k^-=1 /τoff (4)
The equilibrium dissociation constant (Kd) for DES was calculated as follows: Kd=k^-/ k^+ (5)
The rise time of currents activated by the testing NMDA + Gly application in trapping channel block experiments was fitted in ClampFit (pClamp, Axon Instruments) using the double exponential function: I=I1·exp(-t/τ1)+I2·exp(-t/τ2)- C (7) where I1 and I2 are amplitudes of the exponential and τ1 and τ2 are time constants of the exponential and C equals I1 + I2 + Ib.
To study the kinetics of open-channel block of NMDARs by DES, we performed experiments at a single Vm = −70 mV using a Ca^2+-free bathing solution to avoid the influence of the Ca^2+-dependent process. DES was applied at a steady state of NMDAR currents at high (90 μM) or low (20 μM) concentrations (Figure 4A). DES-induced block corresponds well to basic predictions of an open-channel block. The block onset (τon) and offset (τoff) were well fit by a single exponential function (Eq. 2). […] The rate constants of block and unblock calculated on the basis of Eqs 3, 4 were k^+ = 0.008 ± 0.002 s^−1 μM^−1; k^− = 0.039 ± 0.005 s^−1, correspondently.
The absence in records of “tail currents” upon the simultaneous removal of agonists and a blocker may speak in favor of trapping of the blocking molecule inside of the pore ([Costa and Albuquerque 1994]; [Vorobjev and Sharonova 1994]; [Benveniste and Mayer 1995]; [Sobolevsky et al., 1999]). We, therefore, further tested the possibility of trapping of DES in the pore of NMDARs by the channel closure. A series of experiments were carried out following the protocol used previously for ATL ([Stepanenko et al., 2019]). After reaching an equilibrium of NMDA-mediated currents, 90 μM DES was applied to the cell for 10 s until the development of a stable block with a small amount of residual current (Ib) (Figure 4C). […] Single exponential approximation of the data at Figure 4E (dashed line) elicits the time constant of 7.7 ± 1.8 s for DES escape from trapping, representing the quantitative characteristic of DES partial trapping block.

Data set [6] has as its system NMDAR channels. The arrangement: method as in Reynolds and Miller 1988. The conditions noted are these: ref Reynolds and Miller 1988; cited from earlier work.

Where “and” joins values, the source holds several entries; their conditions need not be identical. Identical values can stand only once. Like-named read-outs stand apart in the source and are kept apart here.

In general, IC50 refers to the concentration at which inhibition is half-maximal. Consider `CN(C)CCC=C1c2ccccc2CCc2ccccc21` [ATL, amitriptyline], for which the IC50 in data set [1] was 1.6 µM. For the same compound, in data set [2] (ref Stepanenko et al., 2019), the “e-fold change Vm” value is reported as 54 mV; the “e-fold change [Ca2+]” value was 0.63 mM; the “time constant of escape from trapping block” value is listed as “about 1.2 s”; the “δ, fraction of the membrane electric field” value was 0.51. Also, the IC50 in data set [2] (ref Stepanenko et al., 2019, read-out: IC50(0 mV)) was 321 µM.
For `CN(C)CCCN1c2ccccc2CCc2ccc(Cl)cc21` [CLO, clomipramine], in data set [3], the “δ, fraction of the membrane electric field to the binding site” value amounted to 0.51. Moreover, the therapeutic blood concentrations in data set [4] is 0.3 to 1 µM.
Regarding `CNCCCN1c2ccccc2CCc2ccccc21` [DES, desipramine], in data set [5], the “fold lesser rate of dissociation from channels than ATL” value is reported as “about 5 folds”. The “rate constant of unblock k−” value in data set [5] (Vm = −70 mV, Ca2+-free solution, 1/τoff) was 0.039 ± 0.005 s⁻¹. The “rate constant of block k+” value in data set [5] (Vm = −70 mV, Ca2+-free solution, from τon at 20 and 90 μM) turned out to be 8000 ± 2000 M⁻¹ s⁻¹. The Kd in data set [5] (Vm = −70 mV, Ca2+-free solution, read-out: equilibrium dissociation constant Kd = k−/k+) worked out at 4.7 ± 1.9 µM. For the same compound, the “fold drop of IC50 on increasing extracellular [Ca2+] from 0 to 1 mM” value in data set [3] turned out to be 5 fold. In data set [3], the “fold smaller Vm shift for an e-fold change of IC50 than ATL or CLO” value is about 1.5 folds. Besides, the “δ, fraction of the membrane electric field to the binding site” value in data set [3] was found to be 0.71. The “open-channel block potency relative to ATL” value in data set [3] (based on IC50 (0 mV)) is reported as “about 5 folds”. Moreover, the “e-fold change Vm (Vm shift giving an e-fold change of IC50)” value in data set [3] (fit with Eq. 6) was 37 ± 3.4 mV and 37 mV and 36.9 ± 3.4 mV. Also, the “e-fold change [Ca2+] ([Ca2+] shift giving an e-fold change of IC50)” value in data set [3] (fit with Eq. 6, Vm = −70 mV) was 590 µM and 590 ± 70 µM. In addition, the IC50 was 60 ± 5.7 µM in data set [3] (read-out: IC50(0 mV), value of IC50 at Vm = 0 mV from fit with Eq. 6 (Woodhull)); 27 µM in data set [3] (read-out: IC50 of the inhibition of NMDAR currents, Vm = −30 mV, [Ca2+] = 0); 4.85 µM in data set [3] (read-out: IC50 of the inhibition of NMDAR currents, Vm = −30 mV, [Ca2+] = 1 mM); 8.3 µM in data set [3] (read-out: IC50 of the inhibition of NMDAR currents, Vm = −70 mV, [Ca2+] = 0); 1.75 µM in data set [3] (read-out: IC50 of the inhibition of NMDAR currents, Vm = −70 mV, [Ca2+] = 1 mM); 1.8 µM and 1.81 µM in data set [3] (read-out: IC50 of the inhibition of NMDAR currents, Vm = −70 mV, [Ca2+] = 4 mM). The IC50 is 0.89 µM in data set [3] (read-out: IC50 of the inhibition of NMDAR currents, Vm = −100 mV, [Ca2+] = 1 mM); 0.13 µM in data set [1]; 9.8 µM in data set [2] (5 μM NMDA, physiological extracellular Ca2+, ref Sernagor et al., 1989, read-out: IC50); 1.4 µM in data set [2] (Vm = −70 mV, extracellular Ca2+ present, 100 μM NMDA, ref Barygin et al., 2017, read-out: IC50); 2.7 µM in data set [2] (Vm = −70 mV, extracellular Ca2+ present, 100 μM NMDA, ref Nothdurfter et al., 2013, read-out: IC50); 1.4 to 9.8 µM in data set [2] (varying experimental conditions, ref Reynolds and Miller 1988, Sernagor et al., 1989, Nothdurfter et al., 2013, Barygin et al., 2017, read-out: IC50 values reported for NMDAR inhibition). Further, in data set [3] (regardless of extracellular calcium), the “fold IC50 decrease with Vm shift from −30 to −100 mV” value is recorded as 5.4 fold. For the same compound, in data set [2] (5 μM NMDA, physiological extracellular Ca2+, ref Sernagor et al., 1989), the “e-fold change Vm” value is on record as 36 mV. Also, the “concentration displacing MK-801 from the NMDAR channels” value in data set [6] is 7.41 µM.

The values above are taken from paper PMC8882908, “Tricyclic Antidepressant Structure-Related Alterations in Calcium-Dependent Inhibition and Open-Channel Block of NMDA Receptors” (Frontiers in Pharmacology, 2022).
